Data reported in the supplement of paper PMC10307832.

Key:
Assay in all cases: relative viability (nuclei count vs DMSO), 5 days (fraction); higher = more cells survive
Linsitinib + Palbociclib = compound: C[C@]1(O)C[C@@H](c2nc(-c3ccc4ccc(-c5ccccc5)nc4c3)c3c(N)nccn32)C1 [Linsitinib] + CC(=O)c1c(C)c2cnc(Nc3ccc(N4CCNCC4)cn3)nc2n(C2CCCC2)c1=O [Palbociclib] (partner 0.5 µM)
Method in brief: (§1)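 Values are medians from duplicate plates. Each reflects relative viability, defined as the nuclei count of treated wells over that of vehicle wells. Lung cancer cell lines in 1536-well plates were pin-tool dosed one day after seeding with one drug alone or with a fixed anchor-drug dose plus five library-drug doses (not always all listed) in √10 steps, then fixed, stained and imaged at 4× after 5 days.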

Ispinesib + Pemetrexed = compound: Cc1ccc(C(=O)N(CCCN)[C@@H](c2nc3cc(Cl)ccc3c(=O)n2Cc2ccccc2)C(C)C)cc1 [Ispinesib] + Nc1nc2[nH]cc(CCc3ccc(C(=O)N[C@@H](CCC(=O)O)C(=O)O)cc3)c2c(=O)[nH]1 [Pemetrexed] (partner 0.2 µM)
Method in brief: as §1

Linsitinib + Foretinib = compound: C[C@]1(O)C[C@@H](c2nc(-c3ccc4ccc(-c5ccccc5)nc4c3)c3c(N)nccn32)C1 [Linsitinib] + COc1cc2c(Oc3ccc(NC(=O)C4(C(=O)Nc5ccc(F)cc5)CC4)cc3F)ccnc2cc1OCCCN1CCOCC1 [Foretinib] (partner 0.25 µM)
Method in brief: as §1

Ispinesib + Linsitinib = compound: Cc1ccc(C(=O)N(CCCN)[C@@H](c2nc3cc(Cl)ccc3c(=O)n2Cc2ccccc2)C(C)C)cc1 [Ispinesib] + C[C@]1(O)C[C@@H](c2nc(-c3ccc4ccc(-c5ccccc5)nc4c3)c3c(N)nccn32)C1 [Linsitinib] (partner 1 µM)
Method in brief: as §1

| Cell Line | relative viability (Linsitinib + Palbociclib; first compound 0.01 µM) | relative viability (Linsitinib + Palbociclib; first compound 0.03162 µM) | relative viability (Linsitinib + Palbociclib; first compound 0.1 µM) | relative viability (Linsitinib + Palbociclib; first compound 0.3162 µM) | relative viability (Linsitinib + Palbociclib; first compound 1 µM) | relative viability (Ispinesib + Pemetrexed; first compound 0.001 µM) | relative viability (Ispinesib + Pemetrexed; first compound 0.003162 µM) | relative viability (Ispinesib + Pemetrexed; first compound 0.01 µM) | relative viability (Ispinesib + Pemetrexed; first compound 0.03162 µM) | relative viability (Ispinesib + Pemetrexed; first compound 0.1 µM) | relative viability (Linsitinib + Foretinib; first compound 0.01 µM) | relative viability (Linsitinib + Foretinib; first compound 0.03162 µM) | relative viability (Linsitinib + Foretinib; first compound 0.1 µM) | relative viability (Linsitinib + Foretinib; first compound 0.3162 µM) | relative viability (Linsitinib + Foretinib; first compound 1 µM) | relative viability (Ispinesib + Linsitinib; first compound 0.001 µM) | relative viability (Ispinesib + Linsitinib; first compound 0.003162 µM) | relative viability (Ispinesib + Linsitinib; first compound 0.01 µM) | relative viability (Ispinesib + Linsitinib; first compound 0.03162 µM) | relative viability (Ispinesib + Linsitinib; first compound 0.1 µM) |
| --- | --- | --- | --- | --- | --- | --- | --- | --- | --- | --- | --- | --- | --- | --- | --- | --- | --- | --- | --- | --- |
| LOU-NH91 | 0.513 | 0.539 | 0.484 | 0.529 | 0.549 | 0.387 | 0.428 | 0.384 | 0.374 | 0.323 | 0.953 | 0.939 | 0.879 | 0.926 | 0.842 | 0.875 | 0.908 | 0.887 | 0.695 | 0.677 |
| LU99A | 0.392 | 0.432 | 0.434 | – | 0.36 | 0.188 | 0.21 | 0.163 | 0.163 | 0.141 | 0.766 | 0.839 | 0.838 | 0.553 | 0.662 | 0.573 | 0.587 | 0.509 | 0.336 | 0.167 |
| LXF-289 | 0.565 | 0.62 | 0.607 | 0.493 | 0.614 | 0.92 | 0.937 | 0.973 | 0.769 | 0.137 | 0.968 | 0.944 | 0.984 | – | 0.994 | 0.914 | 0.987 | 1.09 | 0.936 | 0.542 |
| NCI-H23 | 0.519 | 0.415 | 0.415 | 0.326 | 0.313 | 0.68 | 0.785 | 0.726 | 0.522 | 0.207 | 1.04 | 1.06 | 0.924 | 0.949 | 1 | 0.568 | 0.559 | 0.707 | 0.618 | 0.28 |
| NCI-H322M | 0.475 | 0.521 | 0.492 | 0.478 | 0.463 | 0.665 | 0.616 | 0.585 | 0.525 | 0.425 | 1 | 0.77 | 0.989 | 0.916 | 0.923 | 0.966 | 0.945 | 1.01 | 0.569 | 0.921 |
| NCI-H358 | 0.144 | 0.14 | 0.121 | 0.113 | 0.107 | 0.176 | 0.146 | 0.17 | 0.169 | 0.135 | 0.62 | 0.701 | 0.607 | 0.538 | 0.365 | 0.785 | 0.671 | 0.735 | 0.397 | 0.236 |
| NCI-H441 | 0.197 | 0.226 | 0.199 | 0.138 | 0.119 | 0.245 | 0.286 | 0.299 | 0.2 | 0.171 | 0.928 | 1.18 | 0.834 | 0.835 | 0.492 | 0.465 | 0.771 | 0.346 | 0.163 | 0.173 |
| NCI-H460 | 0.192 | 0.0289 | 0.184 | – | 0.142 | 0.0593 | 0.0626 | 0.0626 | 0.0523 | 0.0519 | 1.02 | 1.05 | 0.969 | 0.935 | 1.02 | 1.02 | 0.922 | 1.09 | 0.268 | 0.0336 |
| NCI-H520 | 0.175 | 0.212 | 0.244 | – | 0.215 | 0.768 | 0.75 | 0.721 | 0.231 | 0.211 | 0.704 | 0.529 | 0.988 | – | 0.952 | 1.13 | 0.957 | 1.08 | 0.245 | 0.232 |
| NCI-H647 | 0.377 | 0.459 | 0.32 | 0.171 | 0.322 | 0.165 | 0.161 | 0.124 | 0.118 | 0.0916 | 1.14 | 1.23 | 1.19 | – | 1.17 | 1.2 | 1.26 | 0.949 | 0.607 | 0.144 |
| NCI-H650 | 0.348 | 0.364 | 0.339 | – | 0.291 | 1.1 | 1.02 | 0.933 | 0.609 | 0.238 | 1.04 | 1.08 | 0.969 | 0.782 | 0.966 | 0.995 | 0.958 | 0.887 | 0.358 | 0.245 |
| NCI-H661 | 0.41 | 0.433 | 0.381 | 0.379 | 0.412 | 0.933 | 0.969 | 0.92 | 0.596 | 0.212 | 0.974 | 1.07 | 1.01 | 0.932 | 1 | 0.535 | 0.528 | 0.462 | 0.494 | 0.605 |
| NCI-H838 | 0.23 | 0.207 | 0.17 | 0.19 | 0.162 | 0.255 | 0.248 | 0.248 | 0.252 | 0.148 | 0.996 | 0.855 | 0.894 | – | 0.716 | 1.09 | 1.17 | 1.29 | 0.92 | 0.256 |
| NCI-H1355 | 0.384 | 0.345 | 0.309 | 0.308 | 0.269 | 1.13 | 1.09 | 1.16 | 0.809 | 0.259 | 0.973 | 0.964 | 0.873 | 0.811 | 0.759 | 0.82 | 0.794 | 0.893 | 0.795 | 0.561 |
| NCI-H1395 | 0.653 | – | 0.713 | 0.641 | 0.654 | 0.986 | 1.04 | 0.725 | 0.432 | 0.377 | 0.98 | 1.01 | 1 | 0.957 | 0.998 | 1.1 | 1.04 | 0.966 | 0.407 | 0.436 |
| NCI-H1437 | 0.291 | 0.33 | 0.321 | 0.276 | 0.346 | 0.31 | 0.334 | 0.329 | 0.347 | 0.238 | 1.18 | 1.11 | 1.25 | 0.822 | 1.25 | 1.12 | 1.28 | 1.54 | 0.995 | 0.303 |
